One assay concerns C57Bl6/J mice. The assay can be described thus: Inhibition of MDP-elicited TNF release in vivo. To be noted: 10 mg/kg i.p. 30 min before MDP 100 μg/mouse i.p., blood after 4 h. As to the method:
Female 6‐ to 8‐week‐old C57Bl6/J mice (Jackson labs) were administered with the compounds i.p. 30 min prior to the i.p. injections of MDP as previously described (Nachbur et al, 2015). After 4 h, blood was collected by cardiac puncture. 100 μl of serum (diluted twofold) per animal was analyzed using anti‐mouse TNF ELISA (ThermoFisher Scientific).
All mouse experiments were approved by the Tufts University Committee on the Use and Care of Animals and performed according to accepted veterinary standards. Female 6-8-week-old C57Bl6/J mice (Jackson labs) were used for the experiments. Experiments were performed as previously described (Nachbur et al., 2015). Tested compounds were formulated in 6% Captisol formulation, pH 4.0 (100 μl/mouse, 10 mg/kg, Ligand Pharmaceuticals, San Diego, CA). MDP (Bachem, King of Prussia, PA) was dissolved in saline (100 μl/mouse, 100 μg/mouse). Mice were administered with the drugs i.p. 30 min prior to the i.p. injections of MDP. After 4 h, blood was collected by cardiac puncture.
100 μl of serum (diluted 2-fold) per animal was analyzed using anti-mouse TNF ELISA (ThermoFisher […]
Expression and purification of RIPK2 for X-ray crystallography […]

The subject of the next assay is U2OS/NOD2 cells. The assay can be described thus: Intracellular flow cytometry of CXCL8 after L18-MDP. The assay is classed as cell-based, human. To be noted: L18-MDP 200 ng/ml, 4 h; for inhibition of NOD2 signaling (CXCL8) in cells expressing RIPK2 T95W: U2OS/NOD2 RIPK2 KO cells reconstituted with T95W gatekeeper mutant; for L18-MDP-induced CXCL8 production: U2OS/NOD2 cells. As for the experimental part:
Purified material and lysates were analyzed by immunoblotting. […] Numbering below schematic refers to amino acid residues in human RIPK2 and indicate domain boundaries. […] Data information: Data in (A, B, D, H) represent the mean ± SEM of 2–4 independent experiments, each performed in duplicate. […] Two‐way ANOVA was used to determine statistical significance. See also Fig EV1.Source data are available online for this figure.
Dark gray represents areas occupied by RIPK2; white areas indicate empty spaces in CSLP binding pocket. […] Dotted black box indicates region shown for models with CSLP37 and CSLP43. • Molecular docking model of RIPK2 kinase domain in complex with CSLP43 (green) based on RIPK2/CSLP18 structure from (D). […] Two‐way ANOVA was used to determine statistical significance. See also Fig EV2.
GST-BIR2-XIAP as indicated. Intensity quantification of SPOTs was performed using ImageJ software
Dual luciferase reporter assay
Intracellular flow cytometry of CXCL8
for cell death) or vehicle for 24h. Viability was determined using the CellTiter-Glo® luminescent cell
together with Transfection Carrier DNA (Promega).
After addition of Nano-Glo

Turning to `CCCS(=O)(=O)Nc1cc(-c2cc(-c3ccc(N4CCNCC4)cc3)cnc2N)cc(F)c1OC` [CSLP37], the “MDP-elicited serum TNF levels” value in the assay with C57Bl6/J mice was “potently reduced”. Moreover, in the assay with U2OS/NOD2 cells, the “inhibition of NOD2 signaling (CXCL8) in cells expressing RIPK2 T95W” value (“inhibition of NOD2 signaling (CXCL8)” for short) is “no longer observed” and the “L18-MDP-induced CXCL8 production” value is listed as “potent suppression”.

On to `CCCS(=O)(=O)Nc1cc(-c2cc(-c3ccc(N4CCNCC4)cc3)cnc2N)cc(OC)c1OC` [CSLP43], for which, in the assay on U2OS/NOD2 cells, the “inhibition of NOD2 signaling (CXCL8)” value is on record as “no longer observed” and the “L18-MDP-induced CXCL8 production” value was “potent suppression”.

Take `CCCS(=O)(=O)Nc1cc(-c2cc(-c3ccc(N4CCNCC4)cc3)cnc2N)ccc1O` [CSLP48]: in the assay on U2OS/NOD2 cells, the “inhibition of NOD2 signaling (CXCL8)” value is reported as “not negatively impacted”.

Take `COc1cc(-c2cc(-c3ccc(N4CCNCC4)cc3)cnc2N)cc(F)c1OC` [CSLP55]: the “inhibition of NOD2 signaling (CXCL8)” value with U2OS/NOD2 cells is on record as “not negatively impacted”.

For the molecule `Cc1ccc(-c2nn(C(C)(C)CNC(=O)c3ccncc3)c3ncnc(N)c23)cc1` [WEHI‐345, reference compound], in the assay with C57Bl6/J mice, the “MDP-elicited serum TNF levels” value was “partial reduction”.

For the origin of these results see article PMC6120666 (The EMBO Journal, 2018).
